Results reported in patent US6723716B1, “7-acylamino-3-heteroarylthio-3-cephem carboxylic acid antibiotics and prodrugs thereof” (Essential Therapeutics, Inc., priority 1999, dated 2004).
In brackets after ≈: the same amount, converted by molar mass.

Legend:
S. aureus ATCC29213 = assay: Human serum binding effect: MIC with and without human serum; format: cell-based, Staphylococcus aureus; conditions: 1:1 human serum:MHB
Description: The approximate measurement of the degree of binding of the compound to human serum proteins can be achieved by determination of the effect of the addition of human serum to the medium in which the MIC values against a selected bacterial strain is determined. The ratio of the MIC value obtained in presence of added human serum to the MIC value determined without serum addition was used as a measure of serum binding and the results of such determination are presented below in Table 2.
In addition to the standard MIC determination described above, the staphylococcal strain ATCC29213 is also tested in a ratio 1:1, human serum:MHB to obtain a preliminary estimate of the bioactivity of test compounds in serum: The assay was performed in Human Serum and Mueller-Hinton Broth (HSMHB) with a final bacterial inoculum of 1×10^6 CFU/mL (from an early-log phase culture) and a final volume of 100 μL. Control drugs, including imipenem, vancomycin, dicloxacillin, and new compounds were prepared in double-concentrated Mueller-Hinton broth at a concentration equivalent to 4-fold the desired final concentration. Dilution of compounds were prepared directly in the plates by serial 2-fold dilution in double-concentrated Mueller-Hinton using a multichannel pipette. Positive and negative growth controls were included in each plate. […] The inoculum was prepared by diluting the early log-phase (1 h) culture 1:100 with fresh double-concentrated Mueller-Hinton broth. A volume of 25 μL of the inoculum was added to each well. […] The exact inoculum was determined by applying 10 μl of 10-fold serial dilution of the bacterial suspension on TSA. After overnight incubation at 35° C., colony forming units were manually counted.

E. faecalis VanB (Van^R) = assay: Broth microdilution MIC (NCCLS); format: cell-based; conditions: Enterococcus faecalis
Description: (§1) Compounds were evaluated for antimicrobial activity against a panel of bacterial strains using a broth microdilution assay performed as recommended by the NCCLS (1). The minimum inhibitory concentration (MIC) was defined as the lowest concentration of drug which prevented the growth of the bacteria.
(§2) For this primary panel, the assay was performed in Mueller-Hinton Broth (MHB) with a final bacterial inoculum of 5×10^5 CFU/mL (from an early-log phase culture) and a final volume of 100 μL. Control drugs, including imipenem, vancomycin, Penicillin G, dicloxacillin (vs. MSSA ATCC29213 only), and new compounds were prepared at a concentration equivalent to 2-fold the desired final concentration. Dilution of compounds were prepared directly in the plates by serial 2-fold dilution using a multichannel pipette. Positive and negative growth control were included in each plate.
(§3) The bacterial inocula were prepared as follows. For each strain one isolated colony was used to inoculate a volume of 8 mL of Mueller-Hinton broth and these cultures were incubated overnight (20 h) at 35° C. in a shaking incubator. At the exception of Enterococcus strains, culture were then diluted 1:10 and allowed to grow for an additional one hour at 35° C. in a shaking incubator. The inocula were prepared by diluting the early log-phase (1 h) cultures 1:1000 with fresh Mueller-Hinton broth. E. faecium and E. faecalis were prepared by diluting overnight cultures 1:333 and 1:666, respectively, with fresh Mueller-Hinton broth. A volume of 50 μL of the inocula was added to each well. […] The exact inocula were determined by applying 10 μL of 10-fold serial dilution of the bacterial suspensions on TSA. After overnight incubation at 35° C., colony forming units were manually counted.
(§4) Microtiter plates were incubated during 24 h at 35° C. and were read using a microtiterplate reader (Molecular Devices) at 650 nm as well as by visual observation using a microtiterplate reading mirror.

[1] = test system: S. aureus ATCC 13709 (Meth^S); assay: Broth microdilution MIC (NCCLS); format: cell-based; conditions: Staphylococcus aureus, ATCC13709, S. aureus ATCC 13709 (Meth^S); read-out: MIC
Description: as §1, §2, §3, §4

E. coli ATCC25992 = assay: Broth microdilution MIC (NCCLS); format: cell-based; conditions: Escherichia coli
Description: as §1, §2, §3, §4

[2] = test system: S. haemolyticus 05 (Meth^R); assay: Broth microdilution MIC (NCCLS); format: cell-based; conditions: Staphylococcus haemolyticus
Description: as §1, §2, §3, §4

E. faecalis ATCC 29212 = assay: Broth microdilution MIC (NCCLS); format: cell-based; conditions: Enterococcus faecalis, ATCC29212
Description: as §1, §2, §3, §4

S. aureus ATCC 29213 = assay: Broth microdilution MIC (NCCLS); format: cell-based; conditions: Staphylococcus aureus, ATCC29213; S. aureus ATCC 29213; Mueller-Hinton broth, 24 h at 35° C.; read-out: MIC
Description: as §1, §2, §3, §4

E. faecium VanA (Van^R) = assay: Broth microdilution MIC (NCCLS); format: cell-based; conditions: Enterococcus faecium
Description: as §1, §2, §3, §4

[3] = test system: S. aureus 76 (Meth^R)(lac^+); assay: Broth microdilution MIC (NCCLS); format: cell-based; conditions: Staphylococcus aureus
Description: as §1, §2, §3, §4

P. aeruginosa ATCC 27853 = assay: Broth microdilution MIC (NCCLS); format: cell-based; conditions: Pseudomonas aeruginosa, ATCC27853
Description: as §1, §2, §3, §4

E. faecium ATCC 35667 = assay: Broth microdilution MIC (NCCLS); format: cell-based; conditions: Enterococcus faecium, ATCC35667
Description: as §1, §2, §3, §4

[4] = test system: S. aureus Spain #356 (Meth^R); assay: Broth microdilution MIC (NCCLS); format: cell-based; conditions: Staphylococcus aureus, 24 h
Description: as §1, §2, §3, §4

[5] = test system: S. aureus PC1 (Meth^S)(lac^+); assay: Broth microdilution MIC (NCCLS); format: cell-based; conditions: Staphylococcus aureus
Description: as §1, §2, §3, §4

[6] = test system: S. aureus ATCC 33593 (Meth^R); assay: Broth microdilution MIC (NCCLS); format: cell-based; conditions: Staphylococcus aureus, ATCC33593
Description: as §1, §2, §3, §4

[7] = test system: S. aureus ATCC 13709 (Smith diffuse); assay: Murine lethal bacteremic peritonitis (septicemia) efficacy; format: in vivo, mice; conditions: Staphylococcus aureus, ATCC13709, sc, read-out: Efficacy in murine septicemia % survival
Description: 10 mice/group were injected intraperitoneally with 2.98×10^7 cfu S. aureus ATCC 13709 (Smith diffuse) and treated at 0 and 2 hrs post-challenge with serial two-fold doses of new cephalosporin antibiotic, imipenem and vancomycin subcutaneously in order to determine the ED50. Male Swiss-Webster mice weighing originally 24.2-26.1 g were obtained from Charles Rivers Labs, Hollister, Calif. Mice were housed 10 per cage and given free access to water and mouse chow.
Staphylococcus aureus ATCC 13709 (Smith diffuse) was grown overnight at 37° C. in Brain-heart Infusion broth (BHIB). The following morning, it was subcultured to fresh BHIB and incubated for 4-5 h at 37° C. The log-phase growth cells were washed once with physiological saline and adjusted to the desired concentration by correlation of absorbency at OD 600 nm with predetermined plate counts (NCCLS, 1994). The cell suspension was mixed with an equal volume of sterile 14% hog-gastric mucin (2). Inoculum was kept in an ice bath until used (<1 h).
Mice were challenged via an injection of 0.5 mL bacterial suspension intraperitoneally. The bacterial challenge was 2.98×10^7 cfu/mouse.
Imipenem (Primaxin IV; Lot 7294A), vancomycin (Vancocin; Lot 8MU60W), and new cephalosporin antibiotic were prepared by serial two-fold dilutions to concentrations of 0.078-0.005 mg/mL, 1.2-0.075 mg/mL, 0.3-0.02 mg/mL, 0.3-0.02 mg/mL and 0.3-0.02 mg/mL respectively in sterile water (1). All antibiotics were administered subcutaneously in 0.1 mL volumes at 0 and 2 hours post-challenge. Concentrations of all compounds are based on the weight of the bioactive ingredients.
The 50% effective dose (ED50) was calculated by the probit method (3) utilizing a program entitled Probit (Nycomed-Salutar).

[8] = In vitro stability of compounds in rat serum; format: in vitro ADME; conditions: Table 2 data
Description: In general, compounds from the class of 7-acylamino-3-heteroarylthio-3-cephem carboxylic acids have higher chemical reactivity and lower stability towards chemical or enzymatic decomposition than most typical cephalosporins. […] Results shown in Table 2 represent percentage loss of the initial amount of cephalosporin compound upon 60 min incubation in rat serum.
Procedure for measuring degree of degradation of cephalosporin compounds in rat serum was as follows:
Fresh control rat serum (heparinized and stored frozen) is preincubated at 37° C. for 15 min in a shaking water bath. pH is measured using test strips. 25 μL of a 2 mg/mL solution cephalosporin compound (in water) of is then added to each matrix to make 1000 μL. Solutions were incubated at 37° C. 100 ul of solution was taken out at time=0, 15, 30, and 60 min post dose and added 200 μL 4% trichloroacetic acid, vortexed, and centrifuged for 10 min at 14,000 rpm in an Eppendorf microcentrifuge. 25 μL of each supernatant was injected onto HPLC. Experiment was repeated using 25 μL of a 0.2 mg/mL cephalosporin compound. Degradation is measured as the percentage of HPLC peak area at time t relative to peak area at time 0.
HPLC conditions: Beckman Ultrasphere C18 column. 5 u. 4.6 mm×25 cm. 1 mL/min of 95% 0.1 M ammonium acetate, pH 6, 5% ACN going to 75% buffer/organic over 20 min. UV monitored at 254 and 280 nm.

Row | Structure (SMILES) | Human serum binding effect (ratio of MIC value determined with and without human serum added) (S. aureus ATCC29213) | MIC (E. faecalis VanB (Van^R)) [µg/mL] | MIC [1] [µg/mL] | MIC (E. coli ATCC25992) [µg/mL] | MIC [2] [µg/mL] | MIC (E. faecalis ATCC 29212) [µg/mL] | MIC (S. aureus ATCC 29213) [µg/mL] | MIC (E. faecium VanA (Van^R)) [µg/mL] | MIC [3] [µg/mL] | MIC (P. aeruginosa ATCC 27853) [µg/mL] | MIC (E. faecium ATCC 35667) [µg/mL] | MIC [4] [µg/mL] | MIC [5] [µg/mL] | MIC [6] [µg/mL] | responders at 0.039 mg/kg ([7]; dose 0.039 mg/kg s.c. at 0 and 2 h post-challenge) [%] | responders at 0.078 mg/kg ([7]; dose 0.078 mg/kg s.c. at 0 and 2 h post-challenge) [%] | responders at 0.156 mg/kg ([7]; dose 0.156 mg/kg s.c. at 0 and 2 h post-challenge) [%] | responders at 0.312 mg/kg ([7]; dose 0.312 mg/kg s.c. at 0 and 2 h post-challenge) [%] | responders at 0.625 mg/kg ([7]; dose 0.625 mg/kg s.c. at 0 and 2 h post-challenge) [%] | stability of compounds in rat serum [8]
1 | Cc1nc(CSCCN)c(SC2=C(C(=O)O)N3C(=O)[C@@H](NC(=O)/C(=N\O)c4cccc(N)n4)[C@H]3SC2)s1 [Cmpd 2, (7R)-7-[(Z)-2-(2-aminopyrid-6-yl)-2-(hydroxyimino)acetamido]-3-[4-(2-aminoethylthiomethyl)-2-methyl-1,3-thiazol-5-ylthio]-3-cephem-4-carboxylic acid] | 4 | 1 (≈ 1.72 µM) | 0.13 (≈ 0.223 µM) | 32 (≈ 55 µM) | 4 (≈ 6.88 µM) | 0.25 (≈ 0.43 µM) | 0.25 (≈ 0.43 µM) | 4 (≈ 6.88 µM) | 4 (≈ 6.88 µM) | > 32 | 4 (≈ 6.88 µM) | 2 (≈ 3.44 µM) | 0.25 (≈ 0.43 µM) |  |  |  |  |  |  | 
2 | NCCSc1nnc(SC2=C(C(=O)O)N3C(=O)[C@@H](NC(=O)/C(=N\O)c4nc(N)sc4Cl)[C@H]3SC2)s1 [Cmpd 1, (7R)-7-[(Z)-2-(2-amino-5-chlorothiazol-4-yl)-2-(hydroxyimino)acetamido]-3-(2-aminoethylthio-1,3,4-thiadiazol-5-ylthio)-3-cephem-4-carboxylic acid] | 64 | 0.25 (≈ 0.42 µM) | 0.13 (≈ 0.218 µM) | 0.5 (≈ 0.84 µM) | 1 (≈ 1.68 µM) |  |  | 2 (≈ 3.36 µM) |  |  | 0.5 (≈ 0.84 µM) | 1 (≈ 1.68 µM) | 0.25 (≈ 0.42 µM) | 1 (≈ 1.68 µM) |  |  |  |  |  | 
3 | C[C@@H](O)[C@H]1C(=O)N2C(C(=O)O)=C(SCCN=CN)C[C@H]12 [Imipenem, reference compound] | 2 |  | 0.008 (≈ 0.0267 µM) |  |  |  |  |  |  |  |  |  |  |  | 20 | 40 | 100 | 100 | 100 | 
4 | NCCSCc1ccncc1SC1=C(C(=O)O)N2C(=O)[C@@H](NC(=O)/C(=N\O)c3nsc(N)n3)[C@H]2SC1 [Cmpd 27, (7R)-7-[(Z)-2-(5-amino-1,2,4-thiadiazol-3-yl)-2-(hydroxyimino)acetamido]-3-[4-(2-aminoethylthiomethyl)pyrid-3-ylthio]-3-cephem-4-carboxylic acid] | 4 |  | 0.25 (≈ 0.44 µM) |  |  |  |  |  |  |  |  |  |  |  |  |  |  |  |  | improved stability
5 | NCCSCc1csc(SC2=C(C(=O)O)N3C(=O)[C@@H](NC(=O)/C(=N\O)c4cccc(N)n4)[C@H]3SC2)n1 [Cmpd 4, (7R)-7-[(Z)-2-(2-aminopyrid-6-yl)-2-(hydroxyimino)acetamido]-3-[4-(2-aminoethylthiomethyl)-1,3-thiazol-2-ylthio]-3-cephem-4-carboxylic acid] | 3 | 0.5 (≈ 0.881 µM) | 0.13 (≈ 0.229 µM) | 4 (≈ 7.05 µM) |  | 0.25 (≈ 0.44 µM) | 0.13 (≈ 0.229 µM) |  | 2 (≈ 3.52 µM) |  | 0.25 (≈ 0.44 µM) | 2 (≈ 3.52 µM) | 0.13 (≈ 0.229 µM) | 1 (≈ 1.76 µM) |  |  |  |  |  | 
